These are literature values, as cited in patent US20080038318A1, “Composition; Use Of A Composition And A Method For Treating Obesity” (priority 2004, published 2008).

The test system of this data set is normal and obese volunteers. The settings on record: in vivo.

Take `CCCCCCCCCCC[C@@H](C[C@@H]1OC(=O)[C@H]1CCCCCC)OC(=O)[C@H](CC(C)C)NC=O` [orlistat]: the “reduction of the absorption of triacylglycerols” value was 30%.
